Results as given in patent US12077503B2, “Substituted cyclic amides and their use as herbicides” (FMC CORPORATION, priority 2015, dated 2024).

Legend:
Assay type in all cases: in vivo
[1] = system: ryegrass, Italian (Italian ryegrass, Lolium multiflorum); assay: Test A preemergence; conditions: Lolium multiflorum, pre-emergence, 240 h, 0 to 100 scale (0 no effect, 100 complete control), read-out: Plant response rating, Ryegrass, Italian
Procedure, shortened: (§1)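 Each rating is a visual injury score from 0 to 100 given about 10 d after treatment, judged against untreated controls kept alongside in the greenhouse. In loam soil–sand blend, seeds got a preemergence directed soil spray, while postemergence plants were 2 to 10 cm tall at spraying.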

[2] = system: Kochia (Kochia scoparia); assay: Test A preemergence; conditions: Bassia scoparia, pre-emergence, 240 h, 0 to 100 scale (0 no effect, 100 complete control), read-out: Plant response rating, Kochia
Procedure, shortened: as §1

[3] = system: ragweed (common ragweed, Ambrosia elatior); assay: Test A preemergence; conditions: Ambrosia artemisiifolia, pre-emergence, 240 h, 0 to 100 scale (0 no effect, 100 complete control), read-out: Plant response rating, Ragweed
Procedure, shortened: as §1

[4] = system: pigweed (Amaranthus retroflexus); assay: Test A preemergence; conditions: Amaranthus retroflexus, pre-emergence, 240 h, 0 to 100 scale (0 no effect, 100 complete control), read-out: Plant response rating, Pigweed
[5] = system: barnyardgrass (Echinochloa crus-galli); assay: Test A preemergence; conditions: Echinochloa crus-galli, pre-emergence, 240 h, 0 to 100 scale (0 no effect, 100 complete control), read-out: Plant response rating, Barnyardgrass
Procedure, shortened: as §1

[6] = system: giant foxtail (Setaria faberii); assay: Test A preemergence; conditions: Setaria faberi, pre-emergence, 240 h, 0 to 100 scale (0 no effect, 100 complete control), read-out: Plant response rating, Foxtail, Giant
Procedure, shortened: as §1

[7] = system: corn (Zea mays); assay: Test A postemergence; conditions: Zea mays, post-emergence, 240 h, Postemergence
Procedure, shortened: as §1

[8] = system: wheat (Triticum aestivum); assay: Test A postemergence; conditions: Triticum aestivum, post-emergence, 240 h, Postemergence
Procedure, shortened: as §1

[9] = system: Galium (catchweed bedstraw, Galium aparine); assay: Test A postemergence; conditions: Galium, post-emergence, 240 h, Postemergence
Procedure, shortened: as §1

[10] = system: Kochia (Kochia scoparia); assay: Test A postemergence; conditions: Bassia scoparia, post-emergence, 240 h, Postemergence
Procedure, shortened: as §1

[11] = system: blackgrass (Alopecurus myosuroides); assay: Test A postemergence; conditions: Alopecurus myosuroides, post-emergence, 240 h, Postemergence
Procedure, shortened: as §1

[12] = system: ragweed (common ragweed, Ambrosia elatior); assay: Test A postemergence; conditions: Ambrosia artemisiifolia, post-emergence, 240 h, Postemergence
Procedure, shortened: as §1

[13] = system: pigweed (Amaranthus retroflexus); assay: Test A postemergence; conditions: Amaranthus retroflexus, post-emergence, 240 h, Postemergence
Procedure, shortened: as §1

[14] = system: barnyardgrass (Echinochloa crus-galli); assay: Test A postemergence; conditions: Echinochloa crus-galli, post-emergence, 240 h, Postemergence
Procedure, shortened: as §1

[15] = system: giant foxtail (Setaria faberii); assay: Test A postemergence; conditions: Setaria faberi, post-emergence, 240 h, Postemergence
Procedure, shortened: as §1

**Q.** What does the source list for `C=CCOc1cccc(C2CN(C)C(=O)C2C(=O)Nc2ccccc2F)c1` (stereo not drawn) [Compound 1329]?
**A.** pest or weed control at 500 g/ha ([1]; 500 g ai/ha, preemergence): 40%; pest or weed control at 125 g/ha ([1]; Preemergence, 125 g ai/ha): 0%; pest or weed control at 500 g/ha ([2]; 500 g ai/ha, preemergence): 50%; pest or weed control at 125 g/ha ([2]; Preemergence, 125 g ai/ha): 50%; pest or weed control at 500 g/ha ([3]; 500 g ai/ha, preemergence): 20%; pest or weed control at 125 g/ha ([3]; Preemergence, 125 g ai/ha): 0%; pest or weed control at 500 g/ha ([4]; 500 g ai/ha, preemergence): 30%; pest or weed control at 125 g/ha ([4]; Preemergence, 125 g ai/ha): 0%; pest or weed control at 500 g/ha ([5]; 500 g ai/ha, preemergence): 100%; pest or weed control at 125 g/ha ([5]; Preemergence, 125 g ai/ha): 90%; pest or weed control at 500 g/ha ([6]; 500 g ai/ha, preemergence): 90%; pest or weed control at 125 g/ha ([6]; Preemergence, 125 g ai/ha): 90%; plant injury at 125 g/ha ([7]; 125 g ai/ha, visual rating about 10 d after treatment, read-out: Corn plant response rating (0 to 100 scale)): 30%; Corn plant response rating (crop injury, 0 = no effect, 100 = complete kill) at 500 g/ha ([7]; 500 g ai/ha, visual injury, 0 to 100 scale (0 no effect, 100 complete control), approx. 10 d): 50%; plant injury at 125 g/ha ([8]; 125 g ai/ha, visual rating about 10 d after treatment, read-out: Wheat plant response rating (0 to 100 scale)): 0%; plant injury at 500 g/ha ([8]; 500 g ai/ha, visual injury, 0 to 100 scale (0 no effect, 100 complete control), approx. 10 d, read-out: Plant response rating, Wheat): 20%; pest or weed control at 125 g/ha ([9]; 125 g ai/ha, visual rating about 10 d after treatment, read-out: Galium plant response rating (0 to 100 scale)): 30%; pest or weed control at 500 g/ha ([9]; 500 g ai/ha, visual injury, 0 to 100 scale (0 no effect, 100 complete control), approx. 10 d, read-out: Plant response rating, Galium): 60%; pest or weed control at 125 g/ha ([10]; 125 g ai/ha, visual rating about 10 d after treatment, read-out: Kochia plant response rating (0 to 100 scale)): 40%; pest or weed control at 500 g/ha ([10]; 500 g ai/ha, visual injury, 0 to 100 scale (0 no effect, 100 complete control), approx. 10 d, read-out: Plant response rating, Kochia): 50%; pest or weed control at 125 g/ha ([11]; 125 g ai/ha, visual rating about 10 d after treatment, read-out: Blackgrass plant response rating (0 to 100 scale)): 20%; pest or weed control at 500 g/ha ([11]; 500 g ai/ha, visual injury, 0 to 100 scale (0 no effect, 100 complete control), approx. 10 d, read-out: Plant response rating, Blackgrass): 60%; pest or weed control at 125 g/ha ([12]; 125 g ai/ha, visual rating about 10 d after treatment, read-out: Ragweed plant response rating (0 to 100 scale)): 0%; pest or weed control at 500 g/ha ([12]; 500 g ai/ha, visual injury, 0 to 100 scale (0 no effect, 100 complete control), approx. 10 d, read-out: Plant response rating, Ragweed): 0%; pest or weed control at 125 g/ha ([13]; 125 g ai/ha, visual rating about 10 d after treatment, read-out: Pigweed plant response rating (0 to 100 scale)): 0%; pest or weed control at 500 g/ha ([13]; 500 g ai/ha, visual injury, 0 to 100 scale (0 no effect, 100 complete control), approx. 10 d, read-out: Plant response rating, Pigweed): 0%; pest or weed control at 125 g/ha ([14]; 125 g ai/ha, visual rating about 10 d after treatment, read-out: Barnyardgrass plant response rating (0 to 100 scale, 0 no effect, 100 complete control)): 90%; pest or weed control at 500 g/ha ([14]; 500 g ai/ha, visual injury, 0 to 100 scale (0 no effect, 100 complete control), approx. 10 d, read-out: Plant response rating, Barnyardgrass): 90%; pest or weed control at 125 g/ha ([15]; 125 g ai/ha, visual rating about 10 d after treatment, read-out: Foxtail, Giant plant response rating (0 to 100 scale)): 90%; pest or weed control at 500 g/ha ([15]; 500 g ai/ha, visual injury, 0 to 100 scale (0 no effect, 100 complete control), approx. 10 d, read-out: Plant response rating, Foxtail, Giant): 90%
